The values that follow are results of earlier work, collected in publication PMC4533831 (Molecular pharmaceutics, 2015).

One may read the IC50 as the concentration that gives 50% inhibition.

The test system of the data set is IGF2R. To be noted: read-out: relative binding affinity IC50; affinity to IGF2R.

Turning to `O=C[C@@H](O)[C@@H](O)[C@H](O)[C@H](O)COP(=O)(O)O` [M6P, mannose-6-phosphate], the 50% inhibitory concentration (IC50) is 23 µM.
